From patent EP0511759A1, “Biotoxicity test for chemicals” (THE STANDARD OIL COMPANY, priority 1991, dated 1992) come the findings set out here.

This data set concerns Anthophysa vegetans protozoa. Kind of data set: Protozoan feeding-behaviour bioassay: turbidity (absorbance at 540 nm) of live bacterial feed remaining. In kind it is cell-based. As for the experimental part: The first step of the inventive process comprises adding protozoa and feed into test and control samples which contain inorganic buffers. The chemical substance whose toxic activity is being investigated is then added to the test samples but not to the control samples. The order of adding protozoa, feed and chemical substance is not critical. The amount of protozoa added is usually about at or below 1 x 10⁶ per ml. If dead bacteria are used as feed, they are added at sufficient concentrations to increase the turbidity of the medium to at least 0.3 at 540 nm in a 1.0 cm pathlength tube; this corresponds to concentration of about 2.5 x 10⁹ bacteria per ml. If live bacteria are added as feed, the inoculum level is about 0.01 to about 1% of a fully grown bacterial culture in the range of about 1 x 10⁶ to about 1 x 10⁸ bacteria per ml. […] A sample containing live bacteria is supplemented with a carbon source to support bacterial growth. The carbon sources are generally used at a final concentration of about 0.05%.
This reduction in turbidity generally takes about 1 to about 5 days. If the feed employs live bacteria, there is an initial increase in the turbidity. This increase is then followed by a decrease in turbidity in the control tubes as stated above. If the test chemical is not toxic to the protozoa, the turbidity decreases in the sample tube. If the test chemical is toxic to the protozoa, the turbidity will remain essentially unchanged. The size and volume of the resulting mixture are not critical, provided there is sufficient volume to permit either visual or spectrophotometrical observations of the change in turbidity of the microbial cultures. Typically, about 3 ml to about 5 ml samples were used.
Protozoa, Anthophysa vegetans at about 1 x 10⁵ per ml and a mixed bacteria population of soil bacteria containing but not limited to Alcaligenis and Psuedomonas at about 1 x 10⁶ per ml were inoculated into a growth medium as described above in "Culturing and Test Procedures". The bacteria multiplied in numbers and caused an initial increase in the turbidity (absorbance) of the growth medium, generally from about 0.03 to about 0.4, as measured at 540 nm in a 1.0 cm pathlength tube. After about one day of incubation, the bacterial growth ceased due to the limitation of carbon source. […] The protozoa preyed on the bacteria, leading to a reduction in bacterial cell concentration, indicated by a reduction of turbidity. This growth sequence is illustrated in Line A of Figure 2. If the bacterial cultures were grown without added protozoa, a similar increase in turbidity took place. However, there was no significant reduction in turbidity after the growth phase was completed. This is illustrated in Line B of Figure 2.
Anthophysa vegetans protozoa and live mixed population of soil bacteria containing but not limited to Psuedomonas and Alcaligenis were inoculated into a growth medium as described under "Culturing and Test Procedures". The test chemical, a phenol ethoxylate surfactant, Igepal CO 850 (GAF Chemicals Corp.), was added at different concentrations. A control without added surfactant was maintained. […] However, at about 0 and about 10 ppm surfactant, the absorbance decreased on further incubation. […] The tolerance level of the protozoa, (i.e., the concentration level at which feeding inhibition is first observed) is about 100 ppm Igepal CO 850. […] The protozoa preyed on the bacteria, resulting in reduced absorbance at 540 nm after two days incubation. […]

Turning to `O=[N+]([O-])c1ccc(O)cc1` [4-nitrophenol], the LC₅₀ runs as follows: (Protozoa Inocula Level 0.0001X) 0.46 ppm; (Protozoa Inocula Level 0.001X) 5.6 ppm; (Protozoa Inocula Level 0.01X) 12.5 ppm; (Protozoa Inocula Level 0.1X) 19.5 ppm; (Protozoa Inocula Level 1.0X) 36 ppm.
